{
  "source": "patent US11970473B2",
  "about": "“Nootkatone derivatives and methods of using the same” (Arkansas State University—Jonesboro, priority 2021, dated 2024)",
  "assay_type_in_all_cases": "cell-based, human",
  "key": {"[1]": {"tested_on": "TK-10", "test": "NCI-60 cancer screen", "conditions": "TK-10, Renal Cancer; 10 μM"}, "[2]": {"tested_on": "UACC-62", "test": "NCI-60 cancer screen", "conditions": "UACC-62, Melanoma; 10 μM"}, "[3]": {"tested_on": "HL-60(TB)", "test": "NCI-60 cancer screen", "conditions": "Leukemia, 10 μM"}, "[4]": {"tested_on": "SF-295", "test": "NCI-60 cancer screen", "conditions": "SF-295, CNS Cancer; 10 μM"}, "[5]": {"tested_on": "OVCAR-3", "test": "NCI-60 cancer screen", "conditions": "OVCAR-3, Ovarian Cancer; 10 μM"}, "[6]": {"tested_on": "UO-31", "test": "NCI-60 cancer screen", "conditions": "UO-31, Renal Cancer; 10 μM"}, "[7]": {"tested_on": "NCI-H522", "test": "NCI-60 cancer screen", "conditions": "NCI-H522, Non-Small Cell Lung Cancer; 10 μM"}, "[8]": {"tested_on": "COLO 205", "test": "NCI-60 cancer screen", "conditions": "COLO 205, Colon Cancer; 10 μM"}, "[9]": {"tested_on": "RXF 393", "test": "NCI-60 cancer screen", "conditions": "RXF 393, Renal Cancer; 10 μM"}, "[10]": {"tested_on": "SR", "test": "NCI-60 cancer screen", "conditions": "Leukemia, 10 μM"}, "[11]": {"tested_on": "A498", "test": "NCI-60 cancer screen", "conditions": "A498, Renal Cancer; 10 μM"}, "[12]": {"tested_on": "OVCAR-8", "test": "NCI-60 cancer screen", "conditions": "OVCAR-8, Ovarian Cancer; 10 μM"}, "[13]": {"tested_on": "MOLT-4", "test": "NCI-60 cancer screen", "conditions": "MOLT-4, Leukemia; 10 μM"}, "[14]": {"tested_on": "SNB-75", "test": "NCI-60 cancer screen", "conditions": "SNB-75, CNS Cancer; 10 μM"}, "[15]": {"tested_on": "SK-MEL-2", "test": "NCI-60 cancer screen", "conditions": "SK-MEL-2, Melanoma; 10 μM"}, "[16]": {"tested_on": "HT29", "test": "NCI-60 cancer screen", "conditions": "HT29, Colon Cancer; 10 μM"}, "[17]": {"tested_on": "LOX IMVI", "test": "NCI-60 cancer screen", "conditions": "Melanoma, 10 μM"}, "[18]": {"tested_on": "NCI-60 cancer cell lines", "test": "NCI-60 cancer screen (whole panel)", "conditions": "10 μM"}, "[19]": {"tested_on": "M14", "test": "NCI-60 cancer screen", "conditions": "M14, Melanoma; 10 μM"}, "[20]": {"tested_on": "UACC-257", "test": "NCI-60 cancer screen", "conditions": "UACC-257, Melanoma; 10 μM"}, "[21]": {"tested_on": "HCC-2998", "test": "NCI-60 cancer screen", "conditions": "HCC-2998, Colon Cancer; 10 μM"}, "[22]": {"tested_on": "IGROV1", "test": "NCI-60 cancer screen", "conditions": "IGROV1, Ovarian Cancer; 10 μM"}, "[23]": {"tested_on": "A549/ATCC", "test": "NCI-60 cancer screen", "conditions": "Non-Small Cell Lung Cancer, 10 μM"}, "[24]": {"tested_on": "HS 578T", "test": "NCI-60 cancer screen", "conditions": "Breast Cancer, 10 μM"}, "[25]": {"tested_on": "NCI-H322M", "test": "NCI-60 cancer screen", "conditions": "Non-Small Cell Lung Cancer, 10 μM"}, "[26]": {"tested_on": "OVCAR-4", "test": "NCI-60 cancer screen", "conditions": "OVCAR-4, Ovarian Cancer; 10 μM"}, "[27]": {"tested_on": "786-0", "test": "NCI-60 cancer screen", "conditions": "786-0, Renal Cancer; 10 μM"}, "[28]": {"tested_on": "SNB-19", "test": "NCI-60 cancer screen", "conditions": "SNB-19, CNS Cancer; 10 μM"}, "[29]": {"tested_on": "K-562", "test": "NCI-60 cancer screen", "conditions": "K-562, Leukemia; 10 μM"}, "[30]": {"tested_on": "ACHN", "test": "NCI-60 cancer screen", "conditions": "Renal Cancer, 10 μM"}, "[31]": {"tested_on": "MDA-MB-231/ATCC", "test": "NCI-60 cancer screen", "conditions": "Breast Cancer, 10 μM"}, "[32]": {"tested_on": "NCI-H226", "test": "NCI-60 cancer screen", "conditions": "NCI-H226, Non-Small Cell Lung Cancer; 10 μM"}, "[33]": {"tested_on": "SF-539", "test": "NCI-60 cancer screen", "conditions": "SF-539, CNS Cancer; 10 μM"}, "[34]": {"tested_on": "BT-549", "test": "NCI-60 cancer screen", "conditions": "BT-549, Breast Cancer; 10 μM"}, "[35]": {"tested_on": "SF-268", "test": "NCI-60 cancer screen", "conditions": "SF-268, CNS Cancer; 10 μM"}, "[36]": {"tested_on": "SK-MEL-5", "test": "NCI-60 cancer screen", "conditions": "SK-MEL-5, Melanoma; 10 μM"}, "[37]": {"tested_on": "NCI/ADR-RES", "test": "NCI-60 cancer screen", "conditions": "Ovarian Cancer, 10 μM"}, "[38]": {"tested_on": "MDA-MB-468", "test": "NCI-60 cancer screen", "conditions": "MDA-MB-468, Breast Cancer; 10 μM"}, "[39]": {"tested_on": "U251", "test": "NCI-60 cancer screen", "conditions": "U251, CNS Cancer; 10 μM"}, "[40]": {"tested_on": "MCF7", "test": "NCI-60 cancer screen", "conditions": "MCF7, Breast Cancer; 10 μM"}, "[41]": {"tested_on": "CCRF-CEM", "test": "NCI-60 cancer screen", "conditions": "Leukemia, 10 μM"}},
  "data": [
    {"smiles": "C=C(C)[C@@H]1CC=C2c3sc(-c4ccc(O)cc4)nc3C[C@@H](C)[C@]2(C)C1", "note": "[Compound 15, 4-[(5R,5aS,7R)-7-isopropenyl-5,5a-dimethyl-5,6,7,8-tetrahydro-4H-benzo[g][1,3]benzothiazol-2-yl]phenol]", "values": [
      {"measurement": "Growth Percent", "setting": "[1]", "value": 118.28, "unit": "%"},
      {"measurement": "Growth Percent", "setting": "[2]", "value": 93.02, "unit": "%"},
      {"measurement": "Growth Percent", "setting": "[3]", "value": 100.82, "unit": "%"},
      {"measurement": "Growth Percent", "setting": "[4]", "value": 92.61, "unit": "%"},
      {"measurement": "Growth Percent", "setting": "[5]", "value": 102.89, "unit": "%"},
      {"measurement": "Growth Percent", "setting": "[6]", "value": 88.19, "unit": "%"},
      {"measurement": "Growth Percent", "setting": "[7]", "value": 92.28, "unit": "%"},
      {"measurement": "Growth Percent", "setting": "[8]", "value": 118.41, "unit": "%"},
      {"measurement": "Growth Percent", "setting": "[9]", "value": 113.93, "unit": "%"},
      {"measurement": "Growth Percent", "setting": "[10]", "value": 113.66, "unit": "%"},
      {"measurement": "Growth Percent", "setting": "[11]", "value": 107.24, "unit": "%"},
      {"measurement": "Growth Percent", "setting": "[12]", "value": 98.85, "unit": "%"},
      {"measurement": "Growth Percent", "setting": "[13]", "value": 105.32, "unit": "%"},
      {"measurement": "Growth Percent", "setting": "[14]", "value": 87.74, "unit": "%"},
      {"measurement": "Growth Percent", "setting": "[15]", "value": 104.08, "unit": "%"},
      {"measurement": "Growth Percent", "setting": "[16]", "value": 105.86, "unit": "%"},
      {"measurement": "Growth Percent", "setting": "[17]", "value": 101.88, "unit": "%"},
      {"measurement": "Growth Percent, Delta", "setting": "[18]; delta over panel", "value": 16.54, "unit": "%"},
      {"measurement": "Growth Percent, Mean", "setting": "[18]; mean over panel", "value": 100.94, "unit": "%"},
      {"measurement": "Growth Percent, Range", "setting": "[18]; range over panel", "value": 34.01, "unit": "%"},
      {"measurement": "Growth Percent", "setting": "[19]", "value": 98.96, "unit": "%"},
      {"measurement": "Growth Percent", "setting": "[20]", "value": 100.07, "unit": "%"},
      {"measurement": "Growth Percent", "setting": "[21]", "value": 100.46, "unit": "%"},
      {"measurement": "Growth Percent", "setting": "[22]", "value": 102.22, "unit": "%"},
      {"measurement": "Growth Percent", "setting": "[23]", "value": 95.55, "unit": "%"},
      {"measurement": "Growth Percent", "setting": "[24]", "value": 100.94, "unit": "%"},
      {"measurement": "Growth Percent", "setting": "[25]", "value": 102.27, "unit": "%"},
      {"measurement": "Growth Percent", "setting": "[26]", "value": 95.29, "unit": "%"},
      {"measurement": "Growth Percent", "setting": "[27]", "value": 101.31, "unit": "%"},
      {"measurement": "Growth Percent", "setting": "[28]", "value": 93.47, "unit": "%"},
      {"measurement": "Growth Percent", "setting": "[29]", "value": 92.07, "unit": "%"},
      {"measurement": "Growth Percent", "setting": "[30]", "value": 100.09, "unit": "%"},
      {"measurement": "Growth Percent", "setting": "[31]", "value": 101.25, "unit": "%"},
      {"measurement": "Growth Percent", "setting": "[32]", "value": 94.10, "unit": "%"},
      {"measurement": "Growth Percent", "setting": "[33]", "value": 101.06, "unit": "%"},
      {"measurement": "Growth Percent", "setting": "[34]", "value": 115.53, "unit": "%"},
      {"measurement": "Growth Percent", "setting": "[35]", "value": 100.98, "unit": "%"},
      {"measurement": "Growth Percent", "setting": "[36]", "value": 99.11, "unit": "%"},
      {"measurement": "Growth Percent", "setting": "[37]", "value": 105.66, "unit": "%"},
      {"measurement": "Growth Percent", "setting": "[38]", "value": 102.12, "unit": "%"},
      {"measurement": "Growth Percent", "setting": "[39]", "value": 102.73, "unit": "%"},
      {"measurement": "Growth Percent", "setting": "[40]", "value": 89.98, "unit": "%"},
      {"measurement": "Growth Percent", "setting": "[41]", "value": 99.49, "unit": "%"}
    ]}
  ]
}
